Laboratory results published in patent US6461863B1, “Modifying insect cell gylcosylation pathways with baculovirus expression vectors” (University of Wyoming, priority 1996, dated 2002).

Legend:
Sf9 α1,2-mannosidase = target: T1, Sf9 α1,2-mannosidase (Spodoptera frugiperda, UniProt O18498); assay: α1,2-mannosidase activity assay, release of [3H]mannose from [3H]Man9GlcNAc by lysates of recombinant baculovirus-infected Sf9 cells; type: biochemical; details: cell lysates at 48 hours postinfection (FIG. 15B); for α-mannosidase activity in recombinant baculovirus-infected cells, inhibition by dMNJ: 500 μM dMNJ
T1 construct: This screening procedure identified a full-length α1,2-mannosidase cDNA clone which contains an ORF; made in house; host or cells: Sf9 cells infected with recombinant baculovirus (pVL1393 transfer plasmid, polyhedrin promoter, BacPAK6 DNA); Triton X-100 cell lysate, not purified
T1 sequence (O18498 1-670): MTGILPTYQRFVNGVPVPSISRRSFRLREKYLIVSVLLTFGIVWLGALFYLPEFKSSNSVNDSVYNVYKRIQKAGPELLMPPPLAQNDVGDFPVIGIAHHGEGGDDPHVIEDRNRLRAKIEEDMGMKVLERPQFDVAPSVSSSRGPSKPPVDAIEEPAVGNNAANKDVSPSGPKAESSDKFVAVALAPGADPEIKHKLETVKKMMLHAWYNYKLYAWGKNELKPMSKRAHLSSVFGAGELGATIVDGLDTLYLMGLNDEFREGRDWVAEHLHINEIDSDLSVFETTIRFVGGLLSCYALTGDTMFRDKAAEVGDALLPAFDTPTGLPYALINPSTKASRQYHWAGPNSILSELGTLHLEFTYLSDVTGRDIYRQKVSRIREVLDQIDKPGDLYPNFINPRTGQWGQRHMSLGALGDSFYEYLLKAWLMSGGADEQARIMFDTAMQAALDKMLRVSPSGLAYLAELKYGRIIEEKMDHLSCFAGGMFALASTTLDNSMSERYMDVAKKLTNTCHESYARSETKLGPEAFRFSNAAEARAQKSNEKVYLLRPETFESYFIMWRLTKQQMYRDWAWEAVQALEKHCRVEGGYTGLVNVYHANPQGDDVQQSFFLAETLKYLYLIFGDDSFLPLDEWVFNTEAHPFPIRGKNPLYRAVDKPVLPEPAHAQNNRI
Experimental: Sf9 cell lysates were used for α1,2-mannosidase activity assays with [3H]Man9GlcNAc as described previously (Herscovics and Jelinek-Kelly, 1987) with some modifications. The cells were seeded into 25 cm tissue culture flasks (Corning Glass Works, Corning, N.Y.) at a density of 3 million cells per flask and infected at a multiplicity of infection of 10 plaque forming units per cell with either a recombinant baculovirus encoding the Sf9 α1,2-mannosidase cDNA under the control of the polyhedrin promoter, or wild type baculovirus as a control. The cells were harvested by centrifugation at selected times after infection, washed with 100 mM Na^+MES (pH 6.0), and lysed using 1 ml per 30,000 cells of the same buffer containing 0.5% Triton X-100 with or without 80 mM EDTA.
[…] of the lysates were used in each reaction of the α1,2-mannosidase activity assays. Cell lysates for negative control reactions were boiled for 3 min prior to being added to the reactions. All reactions were carried out in a total volume of […] containing 75 mM Na^+MES (pH 6.0), 0.0625% Triton X-100, and 6000 cpm of [^3H]MangGlcNAc. In addition, some reactions contained CaCl2, MgCl2, EDTA, or dMNJ. The reactions were incubated at 37° C. for 2.5 hours, boiled for 2 min, and 250 ml of a 5 mM solution of CaCl2, MgCl2, and MnCl2, and 175 ml of a 2.25 mg/ml solution of concanavalin A (Boehringer-Mannheim, Indianapolis, Ind.) in 3.8 M NaCl were added to each reaction. The solutions were vortexed gently and incubated at room temperature for two minutes, then 1 ml of 25% PEG-8000 was added and the solutions were vortexed and incubated for another 5 min at room temperature. The solutions were then centrifuged for 2 min at 10,000×g, 1 ml of the supernatant was added to 4 ml of a scintillation cocktail (Ultima Gold™; Packard Instrument Company, Meriden, Conn.), and radioactivity was measured using a Beckman liquid scintillation counter (Model LS 60001C; Beckman Instruments, Inc., Fullerton, Calif.).

N-linked glycans on gp64 = details: baculovirus-infected lepidopteran cells (Jarvis and Garcia, 1994); cited from earlier work
Sf9 α-mannosidase II = target: T2, Sf9 α-mannosidase II (Spodoptera frugiperda, UniProt O18497); assay: α-mannosidase activity assay with p-nitrophenyl α-D-mannopyranoside on extracts of recombinant baculovirus-infected Sf9 cells; type: biochemical; details: various concentrations of swainsonine; extracts 24, 36, 48 h postinfection (FIG. 7B)
T2 construct: The assembled full-length open reading frame of the Sf9 α-mannosidase II cDNA; made in house; host or cells: Sf9 cells infected with recombinant baculovirus (pVL1392 transfer vector, polyhedrin promoter); Triton X-100 cell extract, not purified
T2 sequence (O18497 1-1130): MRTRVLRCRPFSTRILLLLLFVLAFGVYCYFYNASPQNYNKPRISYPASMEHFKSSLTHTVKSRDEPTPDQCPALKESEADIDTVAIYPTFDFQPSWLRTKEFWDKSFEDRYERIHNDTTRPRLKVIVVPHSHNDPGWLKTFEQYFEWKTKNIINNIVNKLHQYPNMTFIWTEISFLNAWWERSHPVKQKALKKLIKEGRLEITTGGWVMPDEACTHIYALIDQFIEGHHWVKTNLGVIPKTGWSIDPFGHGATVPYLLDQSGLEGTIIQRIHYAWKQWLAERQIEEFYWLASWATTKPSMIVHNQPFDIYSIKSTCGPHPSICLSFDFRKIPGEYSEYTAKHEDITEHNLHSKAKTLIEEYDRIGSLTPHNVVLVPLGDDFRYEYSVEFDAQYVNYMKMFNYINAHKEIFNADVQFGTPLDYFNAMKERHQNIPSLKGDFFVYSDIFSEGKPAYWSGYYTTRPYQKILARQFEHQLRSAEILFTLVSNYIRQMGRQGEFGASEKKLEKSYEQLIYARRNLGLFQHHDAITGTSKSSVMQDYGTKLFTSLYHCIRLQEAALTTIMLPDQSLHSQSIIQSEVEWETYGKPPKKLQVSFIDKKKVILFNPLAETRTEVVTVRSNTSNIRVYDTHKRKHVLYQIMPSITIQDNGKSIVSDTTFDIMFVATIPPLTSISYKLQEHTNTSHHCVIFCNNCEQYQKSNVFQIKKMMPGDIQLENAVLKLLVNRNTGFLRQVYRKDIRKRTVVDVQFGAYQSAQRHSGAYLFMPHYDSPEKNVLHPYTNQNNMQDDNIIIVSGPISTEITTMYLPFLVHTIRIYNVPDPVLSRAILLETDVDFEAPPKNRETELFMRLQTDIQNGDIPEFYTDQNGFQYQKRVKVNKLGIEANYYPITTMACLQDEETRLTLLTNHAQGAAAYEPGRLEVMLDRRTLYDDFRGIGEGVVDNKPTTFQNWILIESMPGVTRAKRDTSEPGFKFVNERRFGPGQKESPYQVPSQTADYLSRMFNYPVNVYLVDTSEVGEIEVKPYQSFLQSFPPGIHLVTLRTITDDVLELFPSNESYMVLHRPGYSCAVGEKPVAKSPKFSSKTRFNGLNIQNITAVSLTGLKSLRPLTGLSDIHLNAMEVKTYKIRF
Experimental: Sf9 cells were infected with wild-type or recombinant baculoviruses were harvested by centrifugation at various times after infection, and pellets containing 1×10^6 cells were resuspended in 100 μl of assay buffer (0.1 M MES, pH 6.3; 0.5% Triton-X-100). The cell suspensions were assayed for o-mannosidase activity by mixing 25 μl of the cell extracts with 25 μl of 10 mM p-nitrophenyl α-D-mannopyranoside in the presence or absence of various concentrations of swainsonine. The reaction mixtures were incubated in a microtiter plate for 1 hr at 37° C. with gentle agitation, then quenched by the addition of 200 μl of stop solution (133 mM glycine, 67 mM NaCl, 83 mM Na2CO3). Absorbance was measured at 410 nm on a plate reader (Dynatech Model MR 5000), corrected for light scattering at 570 nm, and the corrected absorbance values were converted to nmol p-nitrophenol using a standard curve produced on the same plate reader.

For O=C(O)CN(CCN(CC(=O)O)CC(=O)O)CC(=O)O [EDTA], the “α-mannosidase activity in recombinant baculovirus-infected cells, inhibition by EDTA” value (Sf9 α1,2-mannosidase; 10 mM EDTA, reversed by calcium, not magnesium) was “strongly inhibited”.

For OC[C@H]1NC[C@@H](O)[C@@H](O)[C@@H]1O [dMNJ, 1-deoxymannojirimycin], the “α-mannosidase activity in recombinant baculovirus-infected cells, inhibition by dMNJ” value (Sf9 α1,2-mannosidase) is listed as “strongly inhibited”, the “α-mannosidase activity in recombinant baculovirus-infected cells, inhibition by dMNJ” value (Sf9 α1,2-mannosidase; listed as 1-deoxymannojirimycin) is listed as “inhibited” and the “processing of N-linked glycans on gp64” value (N-linked glycans on gp64) is listed as “block the processing”.

With O[C@H]1[C@H]2[C@H](O)CCCN2C[C@H]1O [swainsonine] the “α-mannosidase activity in recombinant baculovirus-infected cell extracts in the presence of swainsonine” value (Sf9 α-mannosidase II) was “sensitive”.
